Data: patent US20220118123A1, “COMBINATION OF AR ANTAGONISTS AND TARGETED THORIUM CONJUGATES” (Bayer Aktiengesellschaft, priority 2019, published 2022)

Tests used:
[1] = test system: ST1273 human patient derived prostate cancer model; test: anti-tumor activity in ST1273 patient derived prostate cancer xenograft model; assay type: in vivo, mice
C4-2 cells [2] = test: in vitro cytotoxicity of PSMA-TTC with AR antagonist pre-treatment, cell titer Glo cell viability; assay type: cell-based; conditions: then PSMA-TTC dose titration (50 MBq/mg), 5 days incubation
Description: (§1) The effects of PSMA-TTC compound A′ and compound B (darolutamide, ODM-201) or compound C (enzalutamide) in PSMA overexpressing prostate cancer cell lines LNCaP and C4-2 were investigated in vitro. LNCaP (hormone sensitive) and C4-2 (hormone insensitive) cells were co-cultured in presence of either enzalutamide or darolutamide/ODM-201 and the effect on cell binding of PSMA-conjugate and cytotoxicity of PSMA-TTC was evaluated.
C4-2 and LNCaP cells were seeded in similar cell medium (RPMI/10% FBS/1% HEPES/1% MEM NEAA/1% NaPyruvate/1% L-glutamine). One day after seeding, cells were exposed to either enzalutamide (1 μM), darolutamide (=ODM-201) (10 μM) or DMSO (0.1% (v/v); reference). Seven, 14 and 21 days after co-culturing, the cells were analyzed for cell surface binding of PSMA antibody-chelator conjugate by flow cytometry. […] In addition, cells pre-treated in the presence or absence of AR antagonists at the respective concentrations entered cytotoxicity experiments using cell titer Glo (Promega) as readout for cell viability.
Respective cells pretreated for 0 or 7 days with AR antagonists were seeded on Day −1 at an appropriate cell density (e.g. 1000 cells/well). […] Cell viability was measured after incubation for 5 days in the presence of dose titrations of PSMA-TTC or corresponding controls. […]

[3] = test system: KUCaP-1 human patient derived prostate cancer model; test: anti-tumor activity in KUCaP-1 patient derived prostate cancer xenograft model; assay type: in vivo, mice; conditions: KUCaP-1, day 32
C4-2 cells [4] = test: cell surface binding of PSMA antibody-chelator conjugate by flow cytometry after co-culture with AR antagonists; assay type: cell-based; conditions: 10 μM darolutamide; 7, 14 and 21 days co-culturing; saturating conjugate concentrations; vs DMSO reference
Description: as §1
C4-2 and LNCaP cells were seeded in similar cell medium (RPMI/10% FBS/1% HEPES/1% MEM NEAA/1% NaPyruvate/1% L-glutamine). One day after seeding, cells were exposed to either enzalutamide (1 μM), darolutamide (=ODM-201) (10 μM) or DMSO (0.1% (v/v); reference). Seven, 14 and 21 days after co-culturing, the cells were analyzed for cell surface binding of PSMA antibody-chelator conjugate by flow cytometry. The binding of PSMA conjugate at saturating concentrations increased in both cell lines after treatment with the AR antagonists: maximal binding of PMSA conjugate was increased by 1 μM enzalutamide by 1.9 to 2.8 fold and by 10 μM darolutamide by 1.7-3.6 fold. Similar results were obtained in LNCaP cells. In addition, cells pre-treated in the presence or absence of AR antagonists at the respective concentrations entered cytotoxicity experiments using cell titer Glo (Promega) as readout for cell viability.

[5] = ST1273, 26 days after dosing/start of treatment

Compound | complete response, share of the mice [1, 5] | partial response, share of the mice [1, 5] | CR, complete response (mice/group) ([1]; ST1273, day 26) | PR, partial response (mice/group) ([1]; ST1273, day 26) | Response rate (RR) ([1]; ST1273, day 26, PSMA-TTC 250 kBq/kg single i.v., enzalutamide 30 mg/kg QD×28 p.o.) | sensitivity to growth inhibition by PSMA-TTC (C4-2 cells [2]; enzalutamide 1 μM for 7 days) | PD, progressive disease (mice/group) [3] | Response rate (RR) ([3]; PSMA-TTC 150 kBq/kg i.v., darolutamide 200 mg/kg QD p.o.) | increase of maximal binding of PSMA conjugate (C4-2 cells [4]) | sensitivity to growth inhibition by PSMA-TTC (C4-2 cells [2]; darolutamide 10 μM for 7 days)
CNC(=O)c1ccc(N2C(=S)N(c3ccc(C#N)c(C(F)(F)F)c3)C(=O)C2(C)C)cc1F [enzalutamide] | 33% | 67% | (CR: 3/9, | PR: 6/9) | RR: 100% | increased sensitivity to growth inhibition by PSMA-TTC | – | – | – | –
CC(O)c1cc(C(=O)N[C@@H](C)Cn2ccc(-c3ccc(C#N)c(Cl)c3)n2)n[nH]1 (stereo partly drawn) [darolutamide, N-((S)-1-(3-(3-Chloro-4-cyanophenyl)-1H-pyrazol-1-yl-)-propan-2-yl)-5-(1-hydroxyethyl)-1H-pyrazole-3-carboxamide] | – | – | – | – | – | – | (PD: 10/10) | RR: 0% | 1.7-3.6 fold | increased sensitivity to growth inhibition by PSMA-TTC
